Data reported in patent US20240302387A1, “HIGHLY FLUORINATED COMPOUNDS FOR 19F MRI-BASED THERMOMETRY” (Regents of the University of Minnesota, priority 2023, published 2024).
“Also recorded” adds a separate entry of the source. Read-outs that look alike come from different tables or passages of the source.

Assays:
Format in all cases: physicochemical
[1] = Phase at room temperature
Protocol: All seven organofluorine temperature sensors of Table 1a were synthesized under the optimized reaction conditions for enabling facile synthesis in the following General Scheme and Examples. Specifically, temperature sensors DD1-DD7 were prepared through an SNAr reaction. Compounds DD-2 and DD-4 required one extra oxidation of DD-1 and DD-3 to provide the respective sulfones. Yields of the SNAr reactions using thiol, HS—(CF2)7—CF3, were low […], while the yields with HS—CH2CH2CH2CF2CF3 fell in the range of […].

[2] = 19F NMR aqueous solubility limit measurement; conditions: for solubility: pH 6.9, aqueous with cosolvent or surfactant or cyclodextrin, kinetic from dmso stock
Protocol: ^19F NMR Aqueous Solubility Limit Measurements: Compound was dissolved in DMSO and then added to 10 mM pH=6.9 phosphate buffer/D2O (9:1 v/v) to make 5% DMSO stock in 500 μL phosphate buffer/D2O at concentration of 10/50/100/150/200/250 μM. Samples were measured with Bruker AVANCE III 500@ equipped with a 5 mm BBFO SmartProbe®. ^19F spectra were obtained at 471 MHz with dummy scans=4, acquisition time=0.57 s, delay time =1 s, […], and the number of scans=800 UV-Visible Spectra: Stock solutions of DD-1, DD-3, and DD-5 were prepared at 10 mM in DMSO and stored in the dark. A 10 mM phosphate buffer at pH=7 was prepared and stock solutions were diluted to 50 μM. UV-visible absorption spectra were obtained using a Horiba Aqualog®.

[3] = Direct photolysis kinetics and quantum yield, solar simulator; conditions: for quantum yield of direct photolysis: 10 mM pH 7 phosphate buffer
[4] = Direct photolysis kinetics, mercury vapor lamp
[5] = Quantitative 19F NMR fluorine mass balance after photolysis (solar simulator)
Protocol: (§1) Quantitative ^19F NMR was conducted to determine if any of the fluorinated functional groups were susceptible to degradation. The environmental persistence and potential impact of these fluorinated temperature sensors will be a function of not only the persistence of the parent compound, but also that of any fluorinated reaction products. Photolysis and ozonation represent natural and engineered processes, respectively, that could degrade these compounds after their use and introduction into the water system.
(§2) ^19F NMR spectra were taken to quantify and partition degradation products from the parent compound signals for photolysis and ozonation (FIG. 7). […] The solutions analyzed contained 50 μM of DD-1 with 14 fluorine atoms, thus a total fluorine concentration of 700 μM, with 200 μM attributed to the aromatic fluorines (Ar—F; −137.04 ppm), 200 μM attributed to the CF2 (−121.34 ppm), and 300 μM attributed to the CF3 (−89.14 ppm) as shown in FIG. 7. […] Top: regional spectrum of untreated DD-1. Middle: regional spectrum of DD-1 degraded by solar simulator. Bottom: regional spectrum of DD-1 degraded by ozone. (left) Spectra of CF3 region. (middle) Spectra of CF2 region. (right) Spectra of Ar—F region. For photolysis and ozonation, 61% and 87% the parent Ar—F signal was lost respectively. A peak at ˜139.1 ppm appeared following ozonation and is hypothesized to be a hydroxylated aromatic ring product, which is a known reaction process for aromatics during ozonation (Vialaton, D., et al (1998) J Photochem Photobiol A Chem 119 (1):39-45). For the parent CF2, the signal decreased by 45% and 79%, but new CF2 products appeared upfield. Under both degradative conditions, new peaks appear in the near regions of the CF2, likely due to ring opening processes. […] For the parent CF3, the signal decreased by 38% and 69%, again with new CF3 products appearing upfield. An excess of 39 μM and 48 μM fluorine for the solar simulator and ozonation, respectively, was found within the CF3 region. These groups are hypothesized to be products produced by opening of the aromatic ring, which could be vinyl fluorines with oxygen and/or sulfur substituents.
Photolysis Experiments: Stock solutions were diluted to 10 μM in the phosphate buffer for kinetic experiments and 50 μM for ^19F NMR experiments. Solutions were placed in 10 mL quartz tubes sealed with cork stoppers with no contact to the solution. The solutions were photolyzed in (i) an Atlas Suntest CPS+® solar simulator with a 1500 W xenon lamp at an intensity of 765 W m-2 using a wavelength range of 290-800 nm at a 30° angle, and (ii) a 450 W medium pressure polychromatic mercury vapor lamp with a quartz immersion well with cooling water circulation, a Pyrex 280 nm cutoff filter (Ace Glass), and a merry-go-round sample holder. Samples were photolyzed until ˜60 to 80% degradation of the parent compound was achieved. For each compound an equivalent tube was prepared and wrapped in aluminum foil as a dark control. Experiments were performed in triplicate

[6] = Quantitative 19F NMR fluorine mass balance after ozonation
Protocol: as §1, §2
Ozone-mediated Degradation: The 10 mM DMSO stock solution of DD-1 was used to make 100 mL of a 50 μM solution in the 10 mM pH=7 phosphate buffer. The solution was placed in an Erlenmeyer flask in an ice bath. Ozone (O3) was produced using ultra-high pure oxygen gas (99.99%) with a Pacific Ozone O3 generator and bubbled directly into the sample solution. O3 concentration was previously measured using UV-Vis spectroscopy (Beckman Coulter DU 530). The concentration of O3 (with an ε=3000 M^−1 cm^−1) was determined by direct absorbance at 258 nm. By using a 3:1 dilution, the absorbance obtained is equivalent to the O3 concentration in mM. After 30 minutes the O3 concentration in ultrapure water was 0.61 mM or 29.16 mg/L. Samples were taken over time for 300 minutes and parent compound degradation was monitored via HPLC.

FC(F)(F)C(F)(F)C(F)(F)C(F)(F)N(C(F)(F)C(F)(F)C(F)(F)C(F)(F)F)C(F)(F)C(F)(F)C(F)(F)C(F)(F)F [CC-1, perfluorotributylamine, reference compound]
Phase [1]: liquid | Phase ([1]; listed as CC-1 PFTBA): solid at room temperature | water solubility (in words) [2]: limited water solubility

O=S(=O)(CCCC(F)(F)C(F)(F)F)c1c(F)c(F)c(S(=O)(=O)CCCC(F)(F)C(F)(F)F)c(F)c1F [DD-2, 1,2,4,5-tetrafluoro-3,6-bis((4,4,5,5,5-pentafluoropentyl)sulfonyl) benzene]
Phase [1]: white solids; also recorded: solid

O=S(=O)(c1c(F)c(F)c(SCCCC(F)(F)C(F)(F)F)c(F)c1F)c1c(F)c(F)c(SCCCC(F)(F)C(F)(F)F)c(F)c1F [DD-6, (sulfonylbis(2,3,5,6-tetrafluoro-4,1-phenylene))bis((4,4,5,5,5-pentafluoropentyl)sulfane)]
Phase [1]: solid

O=S(=O)(CCCC(F)(F)C(F)(F)F)c1c(F)c(F)c(-c2c(F)c(F)c(S(=O)(=O)CCCC(F)(F)C(F)(F)F)c(F)c2F)c(F)c1F [DD-4, 2,2′,3,3′,5,5′,6,6′-octafluoro-4,4′-bis((4,4,5,5,5-pentafluoropentyl)sulfonyl)-1,1′-biphenyl]
Phase [1]: solid

Fc1c(F)c(Sc2c(F)c(F)c(SCCCC(F)(F)C(F)(F)F)c(F)c2F)c(F)c(F)c1SCCCC(F)(F)C(F)(F)F [DD-5, bis(2,3,5,6-tetrafluoro-4-((4,4,5,5,5-pentafluoropentyl)thio)phenyl)sulfane]
Phase [1]: solid | rank of photolysis rate constant [3]: fastest | quantum yield of direct photolysis [3]: 0.0520 mol Ei^−1 | rank of photolysis rate constant [4]: fastest

Fc1c(F)c(SCCCC(F)(F)C(F)(F)F)c(F)c(F)c1SCCCC(F)(F)C(F)(F)F [DD-1, (perfluoro-1,4-phenylene)bis((4,4,5,5,5-pentafluoropentyl)sulfane)]
Phase [1]: liquid phase at room temperature | solubility [2]: ≤ 200 µM | quantum yield of direct photolysis [3]: 0.0272 mol Ei^−1 | Fluoride (F−) production ([5]; photolysis, 50 μM): 79 µM | parent Ar—F 19F NMR signal lost ([5]; photolysis, 50 μM): 61% | parent CF2 signal decrease ([5]; photolysis, 50 μM): 45% | parent CF3 signal decrease ([5]; photolysis, 50 μM): 38% | sum of fluorine concentrations for Ar—F, F− and ring opening products/vinyl F ([5]; photolysis, initial Ar—F 200 μM): 198 µM | excess fluorine found within the CF3 region ([5]; solar simulator, 50 μM): 39 µM | sum of fluorine concentrations for Ar—F, F− and ring opening products/vinyl F ([6]; O3, initial Ar—F 200 μM): 200 µM | Fluoride (F−) production ([6]; ozonation, 50 μM): 117 µM | excess fluorine found within the CF3 region ([6]; ozonation, 50 μM): 48 µM | parent Ar—F 19F NMR signal lost ([6]; ozonation, 50 μM): 87% | parent CF2 signal decrease ([6]; ozonation, 50 μM): 79% | parent CF3 signal decrease ([6]; ozonation, 50 μM): 69%

Fc1c(F)c(-c2c(F)c(F)c(SCCCC(F)(F)C(F)(F)F)c(F)c2F)c(F)c(F)c1SCCCC(F)(F)C(F)(F)F [DD-3, (perfluoro-[1,1′-biphenyl]-4,4′-diyl)bis((4,4,5,5,5-pentafluoropentyl)sulfane)]
Phase [1]: liquid phase at room temperature | solubility [2]: ≤ 200 µM | quantum yield of direct photolysis [3]: 0.0267 mol Ei^−1

Fc1c(F)c(-c2c(F)c(F)c(SCCC(F)(F)C(F)(F)C(F)(F)C(F)(F)C(F)(F)C(F)(F)C(F)(F)C(F)(F)F)c(F)c2F)c(F)c(F)c1SCCC(F)(F)C(F)(F)C(F)(F)C(F)(F)C(F)(F)C(F)(F)C(F)(F)C(F)(F)F [CC-2, (perfluoro-[1,1′-biphenyl]-4,4′-diyl)bis((3,3,4,4,5,5,6,6,7,7,8,8,9,9,10,10,10-heptadecafluorodecyl)sulfane), reference compound]
Phase [1]: solid

Fc1c(F)c(SCCC(F)(F)C(F)(F)C(F)(F)C(F)(F)C(F)(F)C(F)(F)C(F)(F)C(F)(F)F)c(F)c(F)c1SCCC(F)(F)C(F)(F)C(F)(F)C(F)(F)C(F)(F)C(F)(F)C(F)(F)C(F)(F)F [CC-3, (perfluoro-1,4-phenylene)bis((3,3,4,4,5,5,6,6,7,7,8,8,9,9,10,1 0,10-heptadecafluorodecyl)sulfane), reference compound]
Phase [1]: solid
